Target: T1, MDM4 (Homo sapiens, UniProt O15151+Q00987)
T1 construct: RING domain (MDM2-MDM4 RING heterodimer, pETDuet, E. coli); with MDM2 (RING domain)
Experiment: microscale thermophoresis on preformed, dye-labelled MDM2-MDM4 RING heterodimer
Format: binding

T1 sequence (O15151 416-490 limits assumed): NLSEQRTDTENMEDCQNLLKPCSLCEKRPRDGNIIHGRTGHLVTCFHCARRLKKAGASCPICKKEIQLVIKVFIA
T1 sequence (Q00987 430-491 limits assumed): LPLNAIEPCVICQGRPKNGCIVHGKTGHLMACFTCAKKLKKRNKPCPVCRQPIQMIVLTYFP

Kd [nM]	Structure (SMILES)
~140	Oc1c(C(Nc2ccccn2)c2cccc(Cl)c2Cl)ccc2cccnc12 (racemic) [MMRi62]
~896	O=C(O)c1ccc(C(Nc2ccccn2)c2cc(Cl)c3cccnc3c2O)cc1 (racemic) [MMRi67]
